Here are results for 2 molecules from paper PMC12462901 (Journal of the American Chemical Society, 2025).

Read-outs that look alike come from different tables or passages of the source.

In data set [1] the test system is HeLa human cervical carcinoma cells (CCL-2). The experiment in a line: cellular potency in HeLa cells. It is filed as cell-based. The settings on record: read-out: IC50 value (cellular potency).
The next data set is described as follows: logD. It is filed as physicochemical. The settings on record: relative to parent atuveciclib.
Another data set can be described thus: kinetic solubility. It is filed as physicochemical. The settings on record: compared to atuveciclib.
Data set [2] relates to Madin-Darby canine kidney (MDCK) cells. The data set can be described thus: permeability in MDCK cells. It is filed as in vitro ADME. Conditions: compared to the parent compound.

As usually defined, the IC50 is the concentration needed to halve the response being measured. Consider `COc1cc(F)ccc1-c1ncnc(Nc2cccc(C[S@](C)(=N)=O)c2)n1` [atuveciclib, reference compound], for which, in data set [1] (Homo sapiens, HeLa), the IC50 worked out at 300 nM.
For `COc1cc(F)ccc1-c1ncnc(Nc2cccc(C[S@@](C)(=O)=NC3CCC3)c2)n1` [Compound 57], in data set [1] (HeLa human cervical carcinoma cells (CCL-2)), the IC50 was 700 nM. Besides, the logD result in “logD” is “increase in logD”. For the same molecule, the kinetic solubility result in “kinetic solubility” is “notable improvement compared to atuveciclib”. In data set [2], the permeability result was “enhanced permeability compared to the parent compound”.
